Source: patent US8178570B2, “Tie-2 modulators and methods of use” (Exelixis, Inc., priority 2003, dated 2012)

molecular target: Tie-2 (Homo sapiens, UniProt Q02763); experiment: Tie-2 tyrosine kinase activity: kinase-dependent ATP consumption (pEY substrate, luciferase/luciferin chemiluminescence) or 33P-ATP incorporation into substrate; assay type: biochemical; details: Tie-2 (human enzyme) inhibition, Table 2, class symbols A-D
How it was run: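 Tie-2 kinase activity is read either as ATP consumption with pEY substrate by luciferase/luciferin chemiluminescence, or as 33P incorporation from 33P-ATP into plate-adsorbed substrate by scintillation counting. IC50 values are binned as A <50 nM, B >50–1000 nM, C >1000–<10,000 nM, and D ≥10,000 nM.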

Sequence of Tie-2 (Q02763 23-1124): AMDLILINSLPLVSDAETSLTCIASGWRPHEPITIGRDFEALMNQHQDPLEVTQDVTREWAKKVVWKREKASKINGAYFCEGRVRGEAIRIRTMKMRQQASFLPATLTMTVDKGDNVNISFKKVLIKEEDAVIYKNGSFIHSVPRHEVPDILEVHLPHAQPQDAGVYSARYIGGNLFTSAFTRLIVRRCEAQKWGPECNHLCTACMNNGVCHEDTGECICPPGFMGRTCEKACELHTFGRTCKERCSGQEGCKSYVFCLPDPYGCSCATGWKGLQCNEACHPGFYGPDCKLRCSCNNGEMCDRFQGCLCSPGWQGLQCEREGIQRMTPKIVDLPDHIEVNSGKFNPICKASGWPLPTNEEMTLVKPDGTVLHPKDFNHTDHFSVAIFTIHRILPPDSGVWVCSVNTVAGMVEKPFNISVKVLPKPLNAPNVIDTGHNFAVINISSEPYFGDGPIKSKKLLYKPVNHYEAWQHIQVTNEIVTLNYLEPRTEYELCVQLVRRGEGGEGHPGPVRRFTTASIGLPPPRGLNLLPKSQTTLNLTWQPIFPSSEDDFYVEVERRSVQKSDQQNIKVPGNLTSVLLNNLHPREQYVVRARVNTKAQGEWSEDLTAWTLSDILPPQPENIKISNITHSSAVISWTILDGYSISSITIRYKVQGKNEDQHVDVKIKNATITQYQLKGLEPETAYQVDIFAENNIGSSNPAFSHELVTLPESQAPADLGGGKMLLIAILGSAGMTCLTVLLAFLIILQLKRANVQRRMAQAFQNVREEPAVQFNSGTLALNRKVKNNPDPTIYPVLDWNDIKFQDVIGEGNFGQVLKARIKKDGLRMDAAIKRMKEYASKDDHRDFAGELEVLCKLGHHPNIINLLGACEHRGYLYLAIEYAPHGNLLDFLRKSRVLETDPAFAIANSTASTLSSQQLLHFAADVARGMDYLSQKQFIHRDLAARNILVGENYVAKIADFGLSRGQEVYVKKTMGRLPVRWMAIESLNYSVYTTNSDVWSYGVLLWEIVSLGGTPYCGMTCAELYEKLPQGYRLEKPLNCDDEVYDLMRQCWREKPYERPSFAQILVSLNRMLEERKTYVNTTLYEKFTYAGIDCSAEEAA

SMILES	IC50
C=CCNC(=O)N(CCn1nc(-c2ccncc2)nc1-c1ccc(OC)c(Cl)c1)C1CCCC1 [Entry 156, N-(2-{5-[3-chloro-4-(methyloxy)phenyl]-3-pyridin-4-yl-1H-1,2,4-triazol-1-yl}ethyl)-N-cyclopentyl-N′-prop-2-en-1-ylurea]	≥ 10 µM
COc1ccc(-c2nc(-c3ccncc3)nn2CCN(C(=O)Nc2ccccc2C(C)C)C2CCCC2)cc1Cl [Entry 157, N-(2-{5-[3-chloro-4-(methyloxy)phenyl]-3-pyridin-4-yl-1H-1,2,4-triazol-1-yl}ethyl)-N-cyclopentyl-N′-[2-(1-methylethyl)phenyl]urea]	≥ 10 µM
COc1ccc(-c2nc(-c3ccncc3)nn2CCN(C(=O)Nc2cc(F)ccc2C)C2CCCC2)cc1Cl [Entry 158, N-(2-{5-[3-chloro-4-(methyloxy)phenyl]-3-pyridin-4-yl-1H-1,2,4-triazol-1-yl}ethyl)-N-cyclopentyl-N′-(5-fluoro-2-methylphenyl)urea]	1 to 10 µM
COc1ccc(-c2nc(-c3ccncc3)nn2CCN(C(=O)Nc2ccc(F)c(F)c2)C2CCCC2)cc1Cl [Entry 159, N-(2-{5-[3-chloro-4-(methyloxy)phenyl]-3-pyridin-4-yl-1H-1,2,4-triazol-1-yl}ethyl)-N-cyclopentyl-N′-(3,4-difluorophenyl)urea]	1 to 10 µM
Cc1nc(-c2ccncc2)nn1CCN(CCN1CCOCC1)C(=O)Cc1cccc2ccccc12 [Entry 160, N-[2-(5-methyl-3-pyridin-4-yl-1H-1,2,4-triazol-1-yl)ethyl]-N-(2-morpholin-4-ylethyl)-2-naphthalen-1-ylacetamide]	≥ 10 µM
CNc1nccc(-c2nc(C)n(CCN(C(=O)Cc3cccc4ccccc34)C3CCCC3)n2)n1 [Entry 161, N-cyclopentyl-N-(2-{5-methyl-3-[2-(methylamino)pyrimidin-4-yl]-1H-1,2,4-triazol-1-yl}ethyl)-2-naphthalen-1-ylacetamide]	≥ 10 µM
Cc1nc(-c2ccnc(N3CCOCC3)c2)nn1CCN(C(=O)Cc1cccc2ccccc12)C1CCCC1 [Entry 163, N-cyclopentyl-N-{2-[5-methyl-3-(2-morpholin-4-ylpyridin-4-yl)-1H-1,2,4-triazol-1-yl]ethyl}-2-naphthalen-1-ylacetamide]	1 to 10 µM
Cc1nc(-c2ccncc2)nn1CCN(C(=O)Cc1cccc2ccccc12)C1CC1 [Entry 168, N-cyclopropyl-N-[2-(5-methyl-3-pyridin-4-yl-1H-1,2,4-triazol-1-yl)ethyl]-2-naphthalen-1-ylacetamide]	0.05 to 1 µM
Cc1nc(-c2ccncc2)nn1CCN(CCN1CCCC1)C(=O)Cc1cccc2ccccc12 [Entry 169, N-[2-(5-methyl-3-pyridin-4-yl-1H-1,2,4-triazol-1-yl)ethyl]-2-naphthalen-1-yl-N-(2-pyrrolidin-1-ylethyl)acetamide]	≥ 10 µM
Cc1nc(-c2ccncc2)nn1CCN(CCN(C)C)C(=O)Cc1cccc2ccccc12 [Entry 170, N-[2-(dimethylamino)ethyl]-N-[2-(5-methyl-3-pyridin-4-yl-1H-1,2,4-triazol-1-yl)ethyl]-2-naphthalen-1-ylacetamide]	1 to 10 µM
Cc1nc(-c2ccncc2)nn1CCN(C(=O)Cc1cccc2ccccc12)C1CCOCC1 [Entry 171, N-[2-(5-methyl-3-pyridin-4-yl-1H-1,2,4-triazol-1-yl)ethyl]-2-naphthalen-1-yl-N-(tetrahydro-2H-pyran-4-yl)acetamide]	0.05 to 1 µM
Cc1nc(-c2ccnc(NCc3ccccc3)c2)nn1CCN(C(=O)Cc1cccc2ccccc12)C1CCCC1 [Entry 172, N-cyclopentyl-N-[2-(5-methyl-3-{2-[(phenylmethyl)amino]pyridin-4-yl}-1H-1,2,4-triazol-1-yl)ethyl]-2-naphthalen-1-ylacetamide]	0.05 to 1 µM
Cc1nc(-c2ccncc2)nn1CCN(CCN1CCCCC1)C(=O)Cc1cccc2ccccc12 [Entry 178, N-[2-(5-methyl-3-pyridin-4-yl-1H-1,2,4-triazol-1-yl)ethyl]-2-naphthalen-1-yl-N-(2-piperidin-1-ylethyl)acetamide]	≥ 10 µM
Cc1nc(-c2ccncc2)nn1CCN(CC1CCCO1)C(=O)Cc1cccc2ccccc12 (centres unmarked) [Entry 180, N-[2-(5-methyl-3-pyridin-4-yl-1H-1,2,4-triazol-1-yl)ethyl]-2-naphthalen-1-yl-N-(tetrahydrofuran-2-ylmethyl)acetamide]	0.05 to 1 µM
Cc1nc(-c2ccnc(NC3CCCNC3)c2)nn1CCN(C(=O)Cc1cccc2ccccc12)C1CCCC1 (centres unmarked) [Entry 181, N-cyclopentyl-N-(2-{5-methyl-3-[2-(piperidin-3-ylamino)pyridin-4-yl]-1H-1,2,4-triazol-1-yl}ethyl)-2-naphthalen-1-ylacetamide]	0.05 to 1 µM
Cc1nc(-c2ccnc(N[C@@H]3CCNC3)c2)nn1CCN(C(=O)Cc1cccc2ccccc12)C1CCCC1 [Entry 182, N-cyclopentyl-N-[2-(5-methyl-3-{2-[(3R)-pyrrolidin-3-ylamino]pyridin-4-yl}-1H-1,2,4-triazol-1-yl)ethyl]-2-naphthalen-1-ylacetamide]	0.05 to 1 µM
Cc1nc(-c2ccnc(NCc3ccccc3)n2)nn1CCN(C(=O)Cc1cccc2ccccc12)C1CCCC1 [Entry 184, N-cyclopentyl-N-[2-(5-methyl-3-{2-[(phenylmethyl)amino]pyrimidin-4-yl}-1H-1,2,4-triazol-1-yl)ethyl]-2-naphthalen-1-ylacetamide]	0.05 to 1 µM
Cc1nc(-c2cc(N)nc(Cl)c2)nn1CCN(C(=O)Cc1cccc2ccccc12)C1CCCC1 [Entry 185, N-{2-[3-(2-amino-6-chloropyridin-4-yl)-5-methyl-1H-1,2,4-triazol-1-yl]ethyl}-N-cyclopentyl-2-naphthalen-1-ylacetamide]	0.05 to 1 µM
Cc1nc(-c2cc(N)nc(N)c2)nn1CCN(C(=O)Cc1cccc2ccccc12)C1CCCC1 [Entry 186, N-cyclopentyl-N-{2-[3-(2,6-diaminopyridin-4-yl)-5-methyl-1H-1,2,4-triazol-1-yl]ethyl}-2-naphthalen-1-ylacetamide]	0.05 to 1 µM
CCOc1cc(-c2nc(C)n(CCN(C(=O)Cc3cccc4ccccc34)C3CCCC3)n2)cc(N)n1 [Entry 187, N-(2-{3-[2-amino-6-(ethyloxy)pyridin-4-yl]-5-methyl-1H-1,2,4-triazol-1-yl}ethyl)-N-cyclopentyl-2-naphthalen-1-ylacetamide]	1 to 10 µM

Continued, values first:

IC50	SMILES
0.05 to 1 µM	Cc1nc(-c2ccc3nsnc3c2)nn1CCN(C(=O)Cc1cccc2ccccc12)C1CCCC1 [Entry 162, N-{2-[3-(2,1,3-benzothiadiazol-5-yl)-5-methyl-1H-1,2,4-triazol-1-yl]ethyl}-N-cyclopentyl-2-naphthalen-1-ylacetamide]
0.05 to 1 µM	Cc1nc(-c2ccnc(NCCN(C)C)c2)nn1CCN(C(=O)Cc1cccc2ccccc12)C1CCCC1 [Entry 164, N-cyclopentyl-N-{2-[3-(2-{[2-(dimethylamino)ethyl]amino}pyridin-4-yl)-5-methyl-1H-1,2,4-triazol-1-yl]ethyl}-2-naphthalen-1-ylacetamide]
0.05 to 1 µM	Cc1nc(-c2ccnc(Nc3ccccc3)c2)nn1CCN(C(=O)Cc1cccc2ccccc12)C1CCCC1 [Entry 165, N-cyclopentyl-N-(2-{5-methyl-3-[2-(phenylamino)pyridin-4-yl]-1H-1,2,4-triazol-1-yl}ethyl)-2-naphthalen-1-ylacetamide]
< 0.05 µM	CCNc1cc(-c2nc(C)n(CCN(C(=O)Cc3cccc4ccccc34)C3CCCC3)n2)ccn1 [Entry 166, N-cyclopentyl-N-(2-{3-[2-(ethylamino)pyridin-4-yl]-5-methyl-1H-1,2,4-triazol-1-yl}ethyl)-2-naphthalen-1-ylacetamide]
< 0.05 µM	CNc1cc(-c2nc(C)n(CCN(C(=O)Cc3cccc4ccccc34)C3CCCC3)n2)ccn1 [Entry 167, N-cyclopentyl-N-(2-{5-methyl-3-[2-(methylamino)pyridin-4-yl]-1H-1,2,4-triazol-1-yl}ethyl)-2-naphthalen-1-ylacetamide]
< 0.05 µM	CCCCNc1cc(-c2nc(C)n(CCN(C(=O)Cc3cccc4ccccc34)C3CCCC3)n2)ccn1 [Entry 173, N-(2-{3-[2-(butylamino)pyridin-4-yl]-5-methyl-1H-1,2,4-triazol-1-yl}ethyl)-N-cyclopentyl-2-naphthalen-1-ylacetamide]
< 0.05 µM	Cc1nc(-c2ccnc(NCCN3CCOCC3)c2)nn1CCN(C(=O)Cc1cccc2ccccc12)C1CCCC1 [Entry 174, N-cyclopentyl-N-[2-(5-methyl-3-{2-[(2-morpholin-4-ylethyl)amino]pyridin-4-yl}-1H-1,2,4-triazol-1-yl)ethyl]-2-naphthalen-1-ylacetamide]
< 0.05 µM	COCCNc1cc(-c2nc(C)n(CCN(C(=O)Cc3cccc4ccccc34)C3CCCC3)n2)ccn1 [Entry 175, N-cyclopentyl-N-{2-[5-methyl-3-(2-{[2-(methyloxy)ethyl]amino}pyridin-4-yl)-1H-1,2,4-triazol-1-yl]ethyl}-2-naphthalen-1-ylacetamide]
< 0.05 µM	Cc1nc(-c2ccnc(N)c2)nn1CCN(C(=O)Cc1cccc2ccccc12)C1CCCC1 [Entry 176, N-{2-[3-(2-aminopyridin-4-yl)-5-methyl-1H-1,2,4-triazol-1-yl]ethyl}-N-cyclopentyl-2-naphthalen-1-ylacetamide]
< 0.05 µM	Cc1nc(-c2ccncc2)nn1CCN(C(=O)Cc1cccc2ccccc12)C(C)C [Entry 177, N-(1-methylethyl)-N-[2-(5-methyl-3-pyridin-4-yl-1H-1,2,4-triazol-1-yl)ethyl]-2-naphthalen-1-ylacetamide]
< 0.05 µM	Cc1nc(-c2ccncc2)nn1CCN(C(=O)Cc1cccc2ccccc12)C1CCCCC1 [Entry 179, N-cyclohexyl-N-[2-(5-methyl-3-pyridin-4-yl-1H-1,2,4-triazol-1-yl)ethyl]-2-naphthalen-1-ylacetamide]
< 0.05 µM	Cc1nc(-c2ccnc(NCCN3CCCCC3)n2)nn1CCN(C(=O)Cc1cccc2ccccc12)C1CCCC1 [Entry 183, N-cyclopentyl-N-[2-(5-methyl-3-{2-[(2-piperidin-1-ylethyl)amino]pyrimidin-4-yl}-1H-1,2,4-triazol-1-yl)ethyl]-2-naphthalen-1-ylacetamide]
